The series is described as follows: Thermal Stability Test. The following applies: 45° C. oven for 21 days; compared with ascorbic acid (FIG. 4). Format: physicochemical. On the procedure:
FIG. 4 is a diagram of Thermal Stability Test observed at 45° C. oven for 21 days.
Competitive with 3-O-ethyl-ascorbic acid and Azelaic acid, inventive samples have best effect in tyrsoinase inhibition.

On to `CCOC1=C(O)C(=O)O[C@@H]1[C@@H](O)COC(=O)CCCCCCCC(=O)O` [Formula (IV), 3-O-ethyl-ascorbyl-6-nonanedioate], for which the thermal stability result was “stable than ascorbic acid”.
